Laboratory results: ChEMBL document CHEMBL5131440, “Antischistosomal tetrahydro-γ-carboline sulfonamides” (Bioorg Med Chem Lett, 2022)
pIC50: −log10 of the molar value. Converted amounts (≈) assume the structure as drawn.

Columns and labels:
[1] = Lipophilicity, log D of compound at pH 7.4 by gradient HPLC analysis; format: physicochemical; settings: buffer
[2] = Solubility of compound in pH 2 0.01 M HCl by nephelometry; format: physicochemical
[3] = Solubility of compound in pH 6.5 phosphate buffer by nephelometry; format: physicochemical
[4] = Intrinsic clearance in human liver microsomes assessed per mg protein at 1 uM preincubated for 5 to 10 mins followed by NADPH-regenerating system addition and measured after 2 to 60 mins by LC-MS/MS analysis; format: ADME, Microsome; settings: time 2-60 min
[5] = Intrinsic clearance in mouse liver microsomes assessed per mg protein at 1 uM preincubated for 5 to 10 mins followed by NADPH-regenerating system addition and measured after 2 to 60 mins by LC-MS/MS analysis; format: ADME, Microsome; settings: time 2-60 min
[6] = Cytotoxicity against rat L6 cells assessed as reduction in cell viability measured after 70 hrs by alamar blue reagent based fluorescence assay; format: toxicity
Schistosoma mansoni [7] = test: Antischistosomal activity against Schistosoma mansoni adult worms at 10 uM measured at 24 hrs interval for 72 hrs relative to control; format: functional
Schistosoma mansoni [8] = test: Antischistosomal activity against Schistosoma mansoni NTS assessed as reduction in parasite viability measured at 24 hrs interval for 72 hrs by bright-field microscopy; format: functional, organism-based
Schistosoma mansoni [9] = test: Antischistosomal activity against Schistosoma mansoni adult worms measured at 24 hrs interval for 72 hrs; format: functional, organism-based
Schistosoma mansoni [10] = test: Antischistosomal activity against Schistosoma mansoni Liberian adult worms assessed as reduction in worm viability measured after 72 hrs by microscopy; format: functional, organism-based

Row | Compound | logD [1] | solubility kinetic [2] [µg/mL] | solubility kinetic [3] [µg/mL] | intrinsic clearance [4] [µL/min] | intrinsic clearance (CLint) [5] [µL/min] | IC50 at 70 h [6] [µM] | Activity (Schistosoma mansoni [7]) [%] | pIC50 (Schistosoma mansoni [8]) | pIC50 (Schistosoma mansoni [9]) | pIC50 (Schistosoma mansoni [10])
1 | Cc1ccc(S(=O)(=O)N2CCc3[nH]c4ccccc4c3C2)cc1 | 4.1 | 1.6 (≈ 4.9 µM) | 1.6 (≈ 4.9 µM) | 170 | 540 | 29 | – | – | – | –
2 | NC(=O)c1ccc2[nH]c3c(c2c1)CN(S(=O)(=O)c1ccc(F)cc1)CC3 | 2.6 | 12.5 (≈ 33.5 µM) | 6.3 (≈ 16.9 µM) | 124 | 81 | 100 | – | – | – | –
3 | O=C(Nc1ccc(F)cc1)N1CCc2[nH]c3ccccc3c2C1 | 3.4 | 6.3 (≈ 20.4 µM) | 6.3 (≈ 20.4 µM) | 82 | 130 | 85 | – | – | – | –
4 | O=S(=O)(c1ccc(C(F)(F)F)cc1)N1CCc2[nH]c3ccccc3c2C1 | 4.3 | < 1.6 | < 1.6 | 50 | 431 | 81 | – | – | – | –
5 | O=S(=O)(c1ccccc1)N1CCc2[nH]c3ccccc3c2C1 | 3.9 | 1.6 (≈ 5.12 µM) | 1.6 (≈ 5.12 µM) | 250 | > 866 | 100 | – | – | – | –
6 | O=C(c1ccc(F)cc1)N1CCc2[nH]c3ccccc3c2C1 | 3.3 | 6.3 (≈ 21.4 µM) | 6.3 (≈ 21.4 µM) | 111 | 184 | 69 | 24 | – | – | –
7 | O=S(=O)(c1ccc(F)cc1)N1CCc2[nH]c3ccc(F)cc3c2C1 | 4.1 | 3.1 (≈ 8.9 µM) | 1.6 (≈ 4.59 µM) | 105 | > 866 | 150 | – | – | – | –
8 | O=S(=O)(c1ccc(Cl)cc1)N1CCc2[nH]c3ccccc3c2C1 | 4.2 | 1.6 (≈ 4.61 µM) | 1.6 (≈ 4.61 µM) | 74 | 607 | 53 | – | – | – | –
9 | O=S(=O)(c1ccc(F)cc1)N1CCc2[nH]c3ccccc3c2CC1 | 4.2 | < 1.6 | < 1.6 | 123 | > 866 | 83 | – | – | – | –
10 | O=S(=O)(Cc1ccc(F)cc1)N1CCc2[nH]c3ccccc3c2C1 | 3.9 | 3.1 (≈ 9 µM) | 1.6 (≈ 4.65 µM) | 135 | 688 | 56 | – | – | – | –
11 | O=S(=O)(c1ccc(Br)cc1)N1CCc2[nH]c3ccccc3c2C1 | 4.4 | < 1.6 | < 1.6 | 102 | 446 | 26 | 67 | 5.31 | 5.36 | –
12 | O=C(O)c1ccc(S(=O)(=O)N2CCc3[nH]c4ccccc4c3C2)cc1 | 1.6 | 3.1 (≈ 8.7 µM) | 25 (≈ 70.1 µM) | 11 | < 7 | 190 | – | – | – | –
13 | O=C(c1ccc2[nH]c3c(c2c1)CN(S(=O)(=O)c1ccc(F)cc1)CC3)N1CCOCC1 | 3 | 12.5 (≈ 28.2 µM) | 6.3 (≈ 14.2 µM) | 89 | 120 | 130 | – | – | – | –
14 | CS(=O)(=O)c1ccc(S(=O)(=O)N2CCc3[nH]c4ccccc4c3C2)cc1 | 3.4 | 3.1 (≈ 7.94 µM) | 3.1 (≈ 7.94 µM) | 57 | 156 | > 250 | 43 | 5.48 | – | –
15 | O=S(=O)(C1CCOCC1)N1CCc2[nH]c3ccccc3c2C1 | 2.9 | 25 (≈ 78 µM) | 25 (≈ 78 µM) | 34 | 674 | 160 | – | – | – | –
16 | O=S(=O)(c1ccc(F)cc1)N1CCc2c([nH]c3ccccc23)C1 | 4.1 | < 1.6 | < 1.6 | 120 | 445 | 53 | – | – | – | –
17 | O=S(=O)(c1cccnc1)N1CCc2[nH]c3ccccc3c2C1 | 3.1 | 12.5 (≈ 39.9 µM) | 6.3 (≈ 20.1 µM) | 117 | 561 | 110 | – | – | – | –
18 | O=S(=O)(c1ccc(F)cc1)N1CCc2[nH]c3ccccc3c2C1 | 4 | 1.6 (≈ 4.84 µM) | 1.6 (≈ 4.84 µM) | 120 | > 866 | 52 | 59 | 5.92 | 5.38 | –
19 | O=C1CCN(S(=O)(=O)c2ccc(F)cc2)CC(=O)c2ccccc2N1 | 2.5 | 50 (≈ 138 µM) | 50 (≈ 138 µM) | 40 | 107 | > 280 | – | – | – | –
20 | O=S(=O)(c1ccc(F)cc1)N1CCc2[nH]c3ncccc3c2C1 | 3.2 | 50 (≈ 151 µM) | 12.5 (≈ 37.7 µM) | 62 | 339 | 82 | – | – | – | –
21 | CS(=O)(=O)N1CCc2[nH]c3ccccc3c2C1 | 2.6 | 25 (≈ 99.9 µM) | 25 (≈ 99.9 µM) | 12 | 21 | 290 | – | – | – | –
22 | O=S(=O)(c1cnc[nH]1)N1CCc2[nH]c3ccccc3c2C1 | 2 | 50 (≈ 165 µM) | 50 (≈ 165 µM) | < 7 | 17 | 170 | – | – | – | –
23 | O=C(O)c1ccc2[nH]c3c(c2c1)CN(S(=O)(=O)c1ccc(F)cc1)CC3 | 1.4 | 3.1 (≈ 8.28 µM) | 50 (≈ 134 µM) | < 7 | < 7 | 240 | – | – | – | –
24 | N#Cc1ccc2[nH]c3c(c2c1)CN(S(=O)(=O)c1ccc(F)cc1)CC3 | 3.8 | 1.6 (≈ 4.5 µM) | 1.6 (≈ 4.5 µM) | 399 | 230 | 33 | – | – | – | –
25 | NC(=O)Cn1c2c(c3ccccc31)CN(S(=O)(=O)c1ccc(F)cc1)CC2 | – | 3.1 (≈ 8 µM) | 3.1 (≈ 8 µM) | 75 | 176 | 150 | – | – | – | –
26 | O=C(C1CCCCC1)N1CC(=O)N2CCc3ccccc3C2C1 (centres undefined) [PRAZIQUANTEL] | – | – | – | – | – | – | – | – | – | 7.11
